Data taken from US12630512B2, “Agents for differentiating stem cells and treating cancer” (Minerva Biotechnologies Corporation, priority 2017, dated 2026).

Key:
micro-RNA-145 [1] = assay: RT-PCR measurement of miR-145 in T47D cancer cells; format: cell-based, human; conditions: treated for 72 hours (FIG. 92A-92C)
Experimental: FIGS. 92A-92C show graphs of RT-PCR measurement of T47D cancer cells treated for 72 hours with compounds of the invention at the indicated concentrations, wherein the gene that is measured is micro-RNA-145, which is a harbinger of stem cell differentiation
(§1) We used RT-PCR to measure changes in the expression of some of these super-enhancer genes, AXIN2, which is a surrogate for activated β-catenin, miR-145, MUC1 and MUC1* ligands NME7AB and NME7-X1. […] Thus, compounds of the invention, at least in part, inhibit tumor cell migration and invasiveness by inducing expression of genes that are critical for differentiation, some of which are super-enhancer target genes, and miR-145, while decreasing expression of β-catenin, MUC1 and its growth factor NME7AB. Novel compounds of the invention are powerful agents for the treatment or prevention of cancers and metastatic cancers. […] In one aspect of the invention, a biological sample from a patient is tested for the presence of MUC1*, NME7AB or NME7-X1, and upon finding that the patient's cancer is positive for MUC1*, NME7AB or NME7-X1, a compound of the invention is administered to the patient in an amount suitable to prevent or treat the cancer. In one instance, the patient sample is subjected to a test, such as PCR, to determine the amount of nucleic acid that encodes MUC1, NME7 or NME7-X1. […] In another aspect of the invention, the patient's cancer is considered to be MUC1* positive, NME7AB positive or NME7-X1 positive if expression of those genes is equal to or greater than 0.5% of EEF1A1 expression in those cells. In yet another aspect of the invention, the patient's cancer is considered to be MUC1* positive if the patient's tissue specimen is contacted with an antibody that binds to the PSMGFR peptide or the N-10 peptide and stains the tissue with a pathologist's standard score 1-4 (“+−++++”). […]

micro-RNA-145 [2] = assay: RT-PCR measurement of miR-145 in naïve state stem cells; format: cell-based, human; conditions: treated for 72 hours (FIG. 91A-91C)
Experimental: FIGS. 91A-91C show graphs of RT-PCR measurement of naïve state stem cells treated for 72 hours with compounds of the invention at the indicated concentrations, wherein the gene that is measured is micro-RNA-145, which is a harbinger of stem cell differentiation.
as §1

cancer cells = assay: Cancer cell proliferation assay; format: cell-based
Experimental: Percent inhibition of cancer cell migration was performed in a wound healing assay. The percent area that the invading cancer cells occupied, in the presence of a drug candidate compared to the controls, was quantified by Image J cell software which enables cell counting from photographs. IC50's were calculated by performing migration experiments at several compound concentrations and then applying Hill's equation. Inhibition of cancer cell proliferation was quantified by automated cell counting in the presence or absence of a drug candidate. […] The effect of the drug candidates on stem cell pluripotency or proliferation was scored by eye, based on cell morphology and cell density, with 0 being no change in morphology or cell number and 4 being the most profound effect, with the stem cells taking on the morphology of a differentiating cell, along with much fewer cells indicative of inhibition of proliferation. […]
For the cancer cell proliferation experiment cancer cells were plated at constant densities (6000 cells/well) into a 96-well White-walled/Clear-bottom Tissue Culture Treated plate (Corning Incorporated, Big Flats, NY). […] At the 120 hour mark a calcein fluorescence assay (Thermo Fisher Scientific, Waltham, MA) is performed on the plate. Calcein fluorescence (final concentration 0.5 uM) is used to assess cell viability. […]

T47D breast cancer cells = assay: Cancer cell migration assay (wound healing / Platypus); format: cell-based, human; conditions: cell line not given, FIGS. 65-80 use T47D, 120 hours; for IC50: Homo sapiens, read-out: IC50 of inhibition of cancer cell migration
Excerpt: Potent cancer cell migration is characteristic of cancer cell invasion of other tissues and of metastasis. Typical migration assays involve coating a cell culture plate with fibronectin, collagen or the like, plating cancer cells and making a scar across through the cells and measuring the time it takes for the cancer cells to invade the void space. An alternative approach that gives more reliable data is the Platypus System which is a special multi-well cell culture plate with a juxtaposed set of plugs that block off a circle in the center of each well. Cancer cells are plated while the plugs are in place, then they are removed after the cells attach to the plate surface. […] In our cancer cell migration assays, the number of cells that have migrated into the empty space is quantified using Image J software. The effects of known anti-migration compounds are compared to the anti-MUC1* Fab E6 and the first few small molecule leads. The effect of two novel small molecules MN1186 and MN1194, compared to the known anti-migration molecule SU11274, is shown in FIG. 22A-22U. FIG. 22V is a graph showing the measured inhibition of cancer cell migration at time 0, 24 hours or 48 hours for a number of compounds. […] FIG. 22X is a graph showing how IC50's of the small molecules of the invention were measured and calculated.
Percent inhibition of cancer cell migration was performed in a wound healing assay. The percent area that the invading cancer cells occupied, in the presence of a drug candidate compared to the controls, was quantified by Image J cell software which enables cell counting from photographs. IC50's were calculated by performing migration experiments at several compound concentrations and then applying Hill's equation. Inhibition of cancer cell proliferation was quantified by automated cell counting in the presence or absence of a drug candidate. Here, the inhibition of cancer cell proliferation was scored 1 if proliferation was inhibited by 25%, 2 if inhibited by […] and 4 for the highest degree of inhibition of proliferation, and 0 for the lowest. The effect of the drug candidates on stem cell pluripotency or proliferation was scored by eye, based on cell morphology and cell density, with 0 being no change in morphology or cell number and 4 being the most profound effect, with the stem cells taking on the morphology of a differentiating cell, along with much fewer cells indicative of inhibition of proliferation. As an example, FIGS. 30A-30F show photographs of naïve stem cell, primed stem cell and fibroblast controls. FIGS. 31A-31F show the effect of compounds of the invention on naïve state stem cells, where the number of ‘+’ signs indicates the score from 0-4 of ability of compound to inhibit pluripotency, proliferation of naïve stem cells or ability to induce their differentiation. […] FIGS. 36-44 and 65-87 show photographs and IC50 graphs of the compounds of the invention, inhibiting cancer cell migration and invasion. Cancer cell migration is a hallmark of metastatic cancer.
For the cancer cell migration experiment cancer cells were plated at varying densities into an Oris Cell Migration Assay Collagen-1 coated 96-well plate (Platypus Technologies LLC, Madison, WI). The Collagen-1 coated 96-well plate incorporates a specific vacuum plug which attaches to the bottom of each well, creating an area in which the cells cannot grow into. Once the cells have been plated at high densities into each well, they are allotted an 18-24 hour time period to attach to the bottom of the wells. Post-24 hour plugs are removed from the plate and then small molecule analogs are added to the wells. Images are taken of each well and represent time 0 (T=0) for each well. Images are taken of the wells at the 24, 48, 72, 96 and 120 hour time points. Data analysis is conducted using the images taken at these specific time point. […]

Row | Structure (SMILES) | expression of miR-145 in T47D cancer cells (micro-RNA-145 [1]) | expression of miR-145 in naïve state stem cells (micro-RNA-145 [2]) | inhibited cancer cell proliferation (cancer cells) | IC50 (T47D breast cancer cells) | inhibited cancer cell migration (T47D breast cancer cells)
1 | CN(C[C@H]1CC[C@H](C(=O)N2CCc3c([nH]c4ccccc34)C2C2CC2)CC1)C(=O)NC(C)(C)C (some centres unmarked) [MN1413] | increased expression of miR-145 in cancer cells | increased expression of miR-145 | about 50% | 10 nM | 83%
2 | C[C@@H]1Cc2c([nH]c3ccccc23)CN1C(=O)C1CCC(CN(C)C(=O)NC(C)(C)C)CC1 (some centres unmarked) [MN1423] | increased expression of miR-145 in cancer cells | increased expression of miR-145 | 50% | 12 nM | 84%
3 | CN(CC1CCC(C(=O)N2CCC(c3ccncc3)CC2)CC1)C(=O)OC(C)(C)C (centres unmarked) [MN1428, Tert-butyl methyl((4-(4-(pyridin-4-yl)piperidine-1-carbonyl)cyclohexyl)methyl)carbamate] | increased expression of miR-145 in cancer cells | increased expression of miR-145 |  | 7 nM | 79%
